Results from patent publication US6723754B2, “Use of COMT inhibitors as analgesics” (Orion Corporation, priority 2000, dated 2004).
Marks after values point to notes of the source that are not given here.

Legend:
[1] = tested on: inflamed paw in rats; assay: Modified Randall-Selitto test (yeast-inflamed hind paw pain threshold); format: in vivo; conditions: rat, one hour before measurement, % of control value
Procedure: (§1) There are several methods for testing analgesic drugs experimentally. […] The inflammation is induced in the rat hind paw by yeast suspension and the pain threshold of the paw is measured. […] In these tests, both the NSAIDs and opioid analgesics are known to be effective. The hot plate test in mice is a test in which only opioid analgesics are effective.
The effect on inflammatory pain was measured using a modified Randall-Selitto test. 0.1 ml of 20% Brewer's yeast suspension was injected subplantary to the right hind paw of rats under ether anaesthesia to elicit inflammation in the paw. After 3 hours the degree of hyperalgesia was determined with an analgesy-meter by applying a force of increasing magnitude to the inflamed paw with a cone-shaped teflon pusher. The force at which the animals begins to struggle was assumed to represent the pain threshold. The drugs were administered orally 5 ml/kg one hour before the measurement. The increase in pain threshold was calculated as a percentage of the control value.

[2] = tested on: acetic acid induced writhing in mice; assay: Acetic acid-induced writhing in mice; format: in vivo; conditions: mouse
Procedure: as §1
Acetic acid induced writhing test is a widely used screening method for analgesic agents. […] Writing movements were elicited in mice by an i.p. injection of 1% acetic acid in the volume of 0.1 ml/10 g. The mice were placed in individual glass containers for observation. The number of writhes was counted during a period of 20 minutes and recorded every 5 minutes. The test compounds were given 5-60 minutes before the acetic acid.

[3] = tested on: formation of prostaglandins; conditions: Aho and Linden, Scand.J.Gastroenterol. 1992; cited from earlier work

Compound	Increase in pain threshold (%) ([1]; 1 mg/kg p.o.)	Increase in pain threshold (%) ([1]; 3 mg/kg p.o.)	Increase in pain threshold (%) ([1]; 30 mg/kg p.o.)	Inhibition of writhing (%) ([2]; 50 mg/kg p.o.)	Inhibition of writhing (%) ([2]; 100 mg/kg p.o.)	Increase in pain threshold (%) ([1]; 10 mg/kg p.o.)	Inhibition of writhing (%) ([2]; 3 mg/kg i.v.)	Inhibition of writhing (%) ([2]; 10 mg/kg i.v.)	Inhibition of writhing (%) ([2]; 1 mg/kg i.p.)	Inhibition of writhing (%) ([2]; 2 mg/kg p.o.)	Inhibition of writhing (%) ([2]; 6 mg/kg p.o.)	Increase in pain threshold (%) ([1]; 0.5 mg/kg p.o.)	Inhibition of writhing (%) ([2]; 30 mg/kg i.p.)	Inhibition of writhing (%) ([2]; 100 mg/kg i.p.)	Effect on formation of prostaglandins [3]
O=[N+]([O-])c1cc(O)c(O)c([N+](=O)[O-])c1 [3,5-dinitrocatechol]	49* %	49* %	65* %	36** %	22** %										
CC(=O)c1cc(O)c(O)c([N+](=O)[O-])c1 [3′,4′-dihydroxy-5′-nitroacetophenone]		45%	62* %	28** %	43** %	68** %									
CCN(CC)C(=O)/C(C#N)=C/c1cc(O)c(O)c([N+](=O)[O-])c1 [Entacapone, (E)-2-cyano-3-(3,4-dihydroxy-5-nitrophenyl)-N,N-diethyl-2-propenamide]			64%		24%	62%	14%	38* %							
COc1ccc2c(c1)c(CC(=O)O)c(C)n2C(=O)c1ccc(Cl)cc1 [Indomethacin, indomethacin]	54* %								38* %	18* %	42** %				
CC(=O)C(=Cc1cc(O)c(O)c([N+](=O)[O-])c1)C(C)=O [Nitecapone, 3-(3,4-dihydroxy-5-nitrophenyl)methylene-2,4-pentanedione]	58* %	46* %		15* %	21** %	45* %						13%	37* %	76* %	stimulate the formation of prostaglandins
